± gives the expanded uncertainty stated by the source.
Conditions: for surface tension liquid-gas: Ring tensiometer; for viscosity / mass density: 101.33 kPa, Liquid; for viscosity: Capillary tube (Ostwald / Ubbelohde) method; for mass density: Pycnometric method

Row | SMILES | surface tension liquid-gas (293.15 K) [mN/m] | viscosity (293.15 K) [mPa·s] | mass density (293.15 K) [kg/m3] | surface tension liquid-gas (298.15 K) [mN/m] | viscosity (298.15 K) [mPa·s] | mass density (298.15 K) [kg/m3] | surface tension liquid-gas (303.15 K) [mN/m] | viscosity (303.15 K) [mPa·s] | mass density (303.15 K) [kg/m3] | surface tension liquid-gas (308.15 K) [mN/m] | viscosity (308.15 K) [mPa·s] | mass density (308.15 K) [kg/m3] | surface tension liquid-gas (313.15 K) [mN/m] | viscosity (313.15 K) [mPa·s] | mass density (313.15 K) [kg/m3] | surface tension liquid-gas (318.15 K) [mN/m] | viscosity (318.15 K) [mPa·s] | mass density (318.15 K) [kg/m3] | surface tension liquid-gas (323.15 K) [mN/m] | viscosity (323.15 K) [mPa·s] | further results
1 | CCCC[n+]1ccc(C)cc1.O=S(=O)([N-]S(=O)(=O)C(F)(F)F)C(F)(F)F | 35.4 ± 0.6 | 65.26 ± 6.5 | 1419 ± 25 | 35 ± 0.6 | 54.41 ± 5.5 | 1413 ± 25 | 34.7 ± 0.6 | 44.42 ± 4.5 | 1412 ± 25 | 34.5 ± 0.6 | 36.12 ± 3.6 | 1411 ± 25 | 34.2 ± 0.6 | 29.81 ± 3 | 1410 ± 25 | 34 ± 0.6 | 25.18 ± 2.5 | 1409 ± 25 | 33.8 ± 0.6 | 20.23 ± 2 | mass density (323.15 K): 1405 ± 25 kg/m3
2 | CCCC[n+]1cccc(C)c1.O=S(=O)([N-]S(=O)(=O)C(F)(F)F)C(F)(F)F | 35.8 ± 0.6 | 81.71 ± 8.2 | 1429 ± 25 | 35.5 ± 0.6 | 64.73 ± 6.5 | 1425 ± 25 | 35.3 ± 0.6 | 51.42 ± 5.2 | 1423 ± 25 | 35.1 ± 0.6 | 41.73 ± 4.2 | 1421 ± 25 | 34.8 ± 0.6 | 33.98 ± 3.4 | 1420 ± 25 | 34.6 ± 0.6 | 29.05 ± 2.9 | 1419 ± 25 | 34.4 ± 0.6 | 25.68 ± 2.6 | mass density (323.15 K): 1416 ± 25 kg/m3
3 | CCCC[n+]1ccccc1C.O=S(=O)([N-]S(=O)(=O)C(F)(F)F)C(F)(F)F | 36.5 ± 0.6 | 143.91 ± 15 | 1482 ± 25 | 36.3 ± 0.6 | 95.73 ± 9.7 | 1476 ± 25 | 36.1 ± 0.6 | 72.05 ± 7.2 | 1459 ± 25 | 35.9 ± 0.6 | 56.95 ± 5.7 | 1450 ± 25 | 35.5 ± 0.6 | 45.83 ± 4.6 | 1446 ± 25 | 35.2 ± 0.6 | 37.39 ± 3.8 | 1440 ± 25 | 35 ± 0.6 | 29.48 ± 3 | mass density (323.15 K): 1435 ± 25 kg/m3
4 | CCCCCC[n+]1ccccc1.O=S(=O)([N-]S(=O)(=O)C(F)(F)F)C(F)(F)F [1-hexylpyridinium bis(trifluromethylsulfonyl)imide] | 34.2 ± 0.6 | 275.12 ± 28 | 1386 ± 25 | 33.9 ± 0.6 | 245.33 ± 25 | 1382 ± 25 | 33.5 ± 0.6 | 201.82 ± 21 | 1379 ± 25 | 33.3 ± 0.5 | 153.24 ± 16 | 1373 ± 25 | 33 ± 0.5 | 131.32 ± 13 | 1368 ± 25 | 32.8 ± 0.5 | 105.99 ± 11 | 1368 ± 25 | 32.6 ± 0.5 | 83.66 ± 8.4 | mass density (323.15 K): 1362 ± 25 kg/m3
5 | CCCC[n+]1cccc(C)c1.O=S(=O)([O-])C(F)(F)F [1-butyl-3-methylpyridinium trifluoromethanesulfonate] | 38.6 ± 0.6 | 142.15 ± 14 | 1306 ± 25 | 38.2 ± 0.6 | 126.57 ± 13 | 1297 ± 25 | 37.5 ± 0.6 | 101.27 ± 10 | 1291 ± 25 | 37.1 ± 0.6 | 78.04 ± 7.8 | 1285 ± 25 | 36.9 ± 0.6 | 60.98 ± 6.1 | 1275 ± 25 | 36.6 ± 0.6 | 48.9 ± 4.9 | 1270 ± 25 | 36.2 ± 0.6 | 37.94 ± 3.8 | mass density (323.15 K): 1251 ± 25 kg/m3
6 | CCCC[n+]1ccccc1.O=S(=O)([N-]S(=O)(=O)C(F)(F)F)C(F)(F)F [1-butylpyridinium bis[(trifluoromethyl)sulfonyl]imide] | 35 ± 0.6 | 75.61 ± 7.6 | 1462 ± 25 | 34.8 ± 0.6 | 60.55 ± 6.1 | 1456 ± 25 | 34.5 ± 0.6 | 48.11 ± 4.8 | 1445 ± 25 | 34.4 ± 0.6 | 38.08 ± 3.8 | 1441 ± 25 | 34.3 ± 0.6 | 32.37 ± 3.2 | 1439 ± 25 | 34.2 ± 0.6 | 27.62 ± 2.8 | 1437 ± 25 | 34.1 ± 0.6 | 22.75 ± 2.3 | mass density (323.15 K): 1433 ± 25 kg/m3
7 | CC[n+]1ccccc1.O=S(=O)([N-]S(=O)(=O)C(F)(F)F)C(F)(F)F [1-ethylpyridinium bis[(trifluoromethyl)sulfonyl]imide] | 35.6 ± 0.6 | 47.43 ± 4.8 | 1534 ± 25 | 35.5 ± 0.6 | 39.76 ± 4 | 1532 ± 25 | 35.4 ± 0.6 | 33.31 ± 3.3 | 1530 ± 25 | 35.3 ± 0.6 | 27.8 ± 2.8 | 1528 ± 25 | 35.2 ± 0.6 | 23.39 ± 2.3 | 1520 ± 25 | 35.2 ± 0.6 | 20.2 ± 2 | 1519 ± 25 | 35.1 ± 0.6 | 17.61 ± 1.8 | mass density (323.15 K): 1515 ± 25 kg/m3
8 | CCCC[n+]1cccc(C)c1.F[B-](F)(F)F [1-butyl-3-methylpyridinium tetrafluoroborate] | 47.5 ± 0.7 | 226.15 ± 23 | 1189 ± 25 | 47.1 ± 0.7 | 169.51 ± 17 | 1177 ± 25 | 45.8 ± 0.7 | 129.06 ± 13 | 1172 ± 25 | 45.6 ± 0.7 | 97.03 ± 9.8 | 1168 ± 25 | 45.3 ± 0.7 | 73.35 ± 7.4 | 1166 ± 25 | 44.9 ± 0.7 | 59.05 ± 5.9 | 1163 ± 25 | 44.4 ± 0.7 | 46.59 ± 4.7 | mass density (323.15 K): 1160 ± 25 kg/m3
